Publication PMC6522510 (Nature Communications, 2019)
Like-named read-outs stand apart in the source and are kept apart here.

Columns and labels:
[1] = system: U937; experiment: cells; set-up: species or system AML cell lines (8); Secondary HTS, 10-point dose-response in triplicate, Cell Titer Glo viability, four-parameter fit EC50; settings: Homo sapiens, read-out: U937
[2] = system: MOLM-13; experiment: cells; set-up: species or system AML cell lines (8); Secondary HTS, 10-point dose-response in triplicate, Cell Titer Glo viability, four-parameter fit EC50; settings: Homo sapiens, read-out: MOLM-13
[3] = system: CMS; experiment: cells; set-up: species or system AML cell lines (8); Secondary HTS, 10-point dose-response in triplicate, Cell Titer Glo viability, four-parameter fit EC50; settings: read-out: CMS
[4] = system: M07e; experiment: cells; set-up: species or system AML cell lines (8); Secondary HTS, 10-point dose-response in triplicate, Cell Titer Glo viability, four-parameter fit EC50; settings: M-07e, read-out: M07e
[5] = system: CHRF288-11; experiment: cells; set-up: species or system AML cell lines (8); Secondary HTS, 10-point dose-response in triplicate, Cell Titer Glo viability, four-parameter fit EC50; settings: read-out: CHRF288-11
[6] = system: MV4-11; experiment: Secondary dose-response HTS, Cell Titer Glo; format: cell-based, human; settings: Homo sapiens; secondary high-throughput screen; MV4-11; read-out: average effective concentration, MV4-11
[7] = system: CMK; experiment: cells; set-up: species or system AML cell lines (8); Secondary HTS, 10-point dose-response in triplicate, Cell Titer Glo viability, four-parameter fit EC50; settings: Homo sapiens, read-out: CMK
[8] = system: ML-2; experiment: cells; set-up: species or system AML cell lines (8); Secondary HTS, 10-point dose-response in triplicate, Cell Titer Glo viability, four-parameter fit EC50; settings: Homo sapiens, read-out: ML-2
[9] = system: MV4-11; experiment: cells; set-up: species or system AML cell lines (8); Secondary HTS, 10-point dose-response in triplicate, Cell Titer Glo viability, four-parameter fit EC50; settings: Homo sapiens, read-out: MV4-11

SMILES	EC50 ([1]; U-937, 72 h) [µM]	EC50 ([2]; MOLM-13, 72 h) [µM]	EC50 ([3]; 72 h) [µM]	EC50 ([4]; 72 h) [µM]	EC50 ([5]; 72 h) [µM]	EC50 [6] [µM]	EC50 ([7]; CMK, 72 h) [µM]	EC50 ([8]; ML-2, 72 h) [µM]	EC50 ([9]; MV4-11, 72 h) [µM]	EC50 ([1]; U-937, 72 h cell viability) [µM]	EC50 ([2]; 72 h cell viability) [µM]	EC50 ([3]; 72 h cell viability) [µM]	EC50 ([4]; 72 h cell viability) [µM]	EC50 ([5]; 72 h cell viability) [µM]	EC50 ([9]; 72 h cell viability) [µM]	EC50 ([7]; 72 h cell viability) [µM]	EC50 ([8]; 72 h cell viability) [µM]
O=c1[nH]cc(F)c(=O)[nH]1 [Compound 5-FLUOROURACIL]	> 10	> 10	> 10	> 10	> 10	> 10	> 10	> 10									
COc1cc2nccc(Oc3ccc(NC(=O)Nc4cc(C)on4)c(Cl)c3)c2cc1OC [TIVOZANIB]	> 10	> 10	> 10	> 10	> 10	7.8	> 10	> 10									
NC(=O)[C@@H](CCC(F)(F)F)N(Cc1ccc(-c2ncon2)cc1F)S(=O)(=O)c1ccc(Cl)cc1 [BMS-708163]	> 10	> 10	> 10	> 10	> 10	> 10	> 10	> 10									
CSCC[C@@H](NC(=O)c1ccc(CNCc2cnc[nH]2)cc1-c1ccccc1C)C(=O)OCc1ccccc1 [SJ000803709, FTI-2628]	2	> 10	> 10	> 10	> 10		> 10	> 10	> 10								
Cc1cc(Cl)ccc1OCCCC(=O)NO [SJ000784245, DROXINOSTAT]	> 10	> 10	6.81	> 10	0.37		> 10	> 10	> 10								
C[C@]1(c2nc3c(C(N)=O)cccc3[nH]2)CCCN1 [VELIPARIB]	> 10	> 10	> 10	> 10	> 10		> 10	> 10	> 10								
Cc1ccc(NCCCc2ccccc2)c(N)c1 [SJ000834143, JSH-23]	> 10	> 10	> 10	> 10	> 10		8.7	> 10	> 10								
CC(N[C@H]1C[C@@H]1c1ccccc1)c1ccc2c(c1)OCCO2 (stereo partly shown) [SJ000832930, LSD1-C76]	> 10	> 10	> 10	> 10	> 10		> 10	> 10	0.001								
Cn1cc(/C=C/C(=O)c2cccc(F)c2)cc1/C=C/C(=O)NO [SJ000784269, MC1568]	3.4	> 10	> 10	0.456	4.9		> 10	4.3	> 10								
O=C(O)Cc1ccccc1 [SJ000784253, SODIUM PHENYLACETATE]										> 10	2.1	> 10	> 10	> 10	> 10	> 10	> 10
CCc1cc2c(cc1N1CCC(N3CCOCC3)CC1)C(C)(C)c1[nH]c3cc(C#N)ccc3c1C2=O [CH5424802]	> 10	> 10	> 10	> 10	> 10		> 10	> 10	> 10								
O=C(Nc1cc(Cl)cc2c1[nH]c1cnccc12)c1cccnc1 [SJ000834145, PS-1145]	> 10	> 10	> 10	> 10	> 10		> 10	> 10	> 10								
Nc1nc(OCc2ccccc2)c2nc[nH]c2n1 [Compound O6-BENZYLGUANINE]	> 10	> 10	> 10	> 10	> 10		> 10	> 10	> 10								
O=C1NC(=O)/C(=C/c2cccc(C(F)(F)F)c2)S1 [SJ000006739, SMI-4A]	> 10	> 10	> 10	> 10	> 10		> 10	> 10	> 10								
CCOc1cc(N2CCC(O)CC2)ccc1Nc1ncc2c(n1)N(C)c1ccccc1C(=O)N2C [SJ000821586, XMD 8-92]	> 10	9.3	> 10	> 10	> 10		2	> 10	3.2								
COC(=O)/C=C/C(=O)OC [SJ000784308, BG-12]	> 10	> 10	> 10	> 10	> 10		> 10	> 10	> 10								
Cc1noc(-c2ccc(-c3ccc(CC(=O)O)cc3)cc2)c1NC(=O)O[C@H](C)c1ccccc1 [SJ000833854, AM-095]	> 10	0.0068	> 10	> 10	> 10		> 10	> 10	> 10								
